Experimental findings from paper PMC6385481 (Chemical Science, 2018) are described below.

One experiment concerns the target TAP (Homo sapiens, UniProt Q03518+Q03519). Briefly: TAP-dependent peptide transport of NST-F in Raji microsomes. Particulars: read-out: inhibition of TAP-dependent peptide translocation before illumination. It counts as biochemical.
In experiment [1] the target is T1, TAP (core-TAP1mVenus/core-TAP2mCerulean containing crude membranes from Pichia pastoris) (Homo sapiens, UniProt Q03518+Q03519).
T1 sequence (Q03518 167-748 limits assumed): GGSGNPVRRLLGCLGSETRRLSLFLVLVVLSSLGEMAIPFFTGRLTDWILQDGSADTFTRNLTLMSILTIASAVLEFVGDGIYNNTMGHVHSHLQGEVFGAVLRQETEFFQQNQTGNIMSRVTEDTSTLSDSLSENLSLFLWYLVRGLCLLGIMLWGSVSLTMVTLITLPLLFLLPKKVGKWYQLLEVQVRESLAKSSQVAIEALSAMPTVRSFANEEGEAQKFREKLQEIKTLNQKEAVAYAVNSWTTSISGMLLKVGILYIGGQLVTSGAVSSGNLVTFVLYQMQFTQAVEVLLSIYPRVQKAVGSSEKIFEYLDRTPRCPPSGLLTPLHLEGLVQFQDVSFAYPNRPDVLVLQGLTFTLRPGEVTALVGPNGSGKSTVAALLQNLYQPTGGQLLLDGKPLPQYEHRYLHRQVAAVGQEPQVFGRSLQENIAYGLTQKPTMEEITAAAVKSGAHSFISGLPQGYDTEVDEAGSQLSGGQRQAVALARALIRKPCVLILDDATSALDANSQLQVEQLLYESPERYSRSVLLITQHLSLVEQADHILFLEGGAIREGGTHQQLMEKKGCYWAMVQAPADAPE
T1 sequence (Q03519 125-686 limits assumed): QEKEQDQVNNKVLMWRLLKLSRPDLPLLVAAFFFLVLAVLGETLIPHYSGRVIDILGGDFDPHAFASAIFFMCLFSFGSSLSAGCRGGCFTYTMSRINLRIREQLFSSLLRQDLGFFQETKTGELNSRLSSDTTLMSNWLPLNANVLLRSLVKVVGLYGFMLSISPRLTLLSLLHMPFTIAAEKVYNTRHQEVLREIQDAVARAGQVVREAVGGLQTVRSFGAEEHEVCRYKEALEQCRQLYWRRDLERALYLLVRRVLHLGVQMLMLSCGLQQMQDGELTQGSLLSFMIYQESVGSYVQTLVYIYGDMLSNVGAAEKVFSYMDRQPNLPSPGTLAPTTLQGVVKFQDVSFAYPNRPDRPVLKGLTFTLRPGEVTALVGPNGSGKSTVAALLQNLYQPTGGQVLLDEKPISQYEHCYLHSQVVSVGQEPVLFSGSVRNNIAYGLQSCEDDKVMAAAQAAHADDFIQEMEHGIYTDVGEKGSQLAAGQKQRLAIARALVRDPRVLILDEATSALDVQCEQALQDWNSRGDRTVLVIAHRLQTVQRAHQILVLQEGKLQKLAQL
Briefly: Filter-based peptide competition assay. It counts as binding. The conditions noted are these: 100 μM inhibitor; illumination at 365 nm.

Molecules are shown by their SMILES. Entries after “also recorded” stand apart in the source; their conditions may differ.

TAP, sequence (Q03518 whole entry): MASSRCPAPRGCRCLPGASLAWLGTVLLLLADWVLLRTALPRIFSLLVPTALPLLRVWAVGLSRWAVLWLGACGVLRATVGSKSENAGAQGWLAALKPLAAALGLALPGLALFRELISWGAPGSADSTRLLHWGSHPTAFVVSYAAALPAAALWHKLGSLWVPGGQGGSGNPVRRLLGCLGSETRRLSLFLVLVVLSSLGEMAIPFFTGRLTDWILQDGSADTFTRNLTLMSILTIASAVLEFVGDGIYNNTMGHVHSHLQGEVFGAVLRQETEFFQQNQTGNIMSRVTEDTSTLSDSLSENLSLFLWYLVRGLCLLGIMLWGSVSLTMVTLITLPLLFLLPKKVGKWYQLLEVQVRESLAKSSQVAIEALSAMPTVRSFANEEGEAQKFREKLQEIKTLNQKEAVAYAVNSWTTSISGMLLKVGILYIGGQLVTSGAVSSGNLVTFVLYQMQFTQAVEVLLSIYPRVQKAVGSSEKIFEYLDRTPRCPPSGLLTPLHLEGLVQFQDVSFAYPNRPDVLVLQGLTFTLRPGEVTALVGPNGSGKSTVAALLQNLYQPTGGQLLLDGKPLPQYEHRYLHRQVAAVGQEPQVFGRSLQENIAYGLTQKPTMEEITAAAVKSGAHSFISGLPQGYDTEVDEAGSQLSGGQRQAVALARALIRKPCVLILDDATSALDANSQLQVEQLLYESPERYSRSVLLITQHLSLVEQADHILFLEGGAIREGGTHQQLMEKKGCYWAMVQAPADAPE
TAP, sequence (Q03519 whole entry): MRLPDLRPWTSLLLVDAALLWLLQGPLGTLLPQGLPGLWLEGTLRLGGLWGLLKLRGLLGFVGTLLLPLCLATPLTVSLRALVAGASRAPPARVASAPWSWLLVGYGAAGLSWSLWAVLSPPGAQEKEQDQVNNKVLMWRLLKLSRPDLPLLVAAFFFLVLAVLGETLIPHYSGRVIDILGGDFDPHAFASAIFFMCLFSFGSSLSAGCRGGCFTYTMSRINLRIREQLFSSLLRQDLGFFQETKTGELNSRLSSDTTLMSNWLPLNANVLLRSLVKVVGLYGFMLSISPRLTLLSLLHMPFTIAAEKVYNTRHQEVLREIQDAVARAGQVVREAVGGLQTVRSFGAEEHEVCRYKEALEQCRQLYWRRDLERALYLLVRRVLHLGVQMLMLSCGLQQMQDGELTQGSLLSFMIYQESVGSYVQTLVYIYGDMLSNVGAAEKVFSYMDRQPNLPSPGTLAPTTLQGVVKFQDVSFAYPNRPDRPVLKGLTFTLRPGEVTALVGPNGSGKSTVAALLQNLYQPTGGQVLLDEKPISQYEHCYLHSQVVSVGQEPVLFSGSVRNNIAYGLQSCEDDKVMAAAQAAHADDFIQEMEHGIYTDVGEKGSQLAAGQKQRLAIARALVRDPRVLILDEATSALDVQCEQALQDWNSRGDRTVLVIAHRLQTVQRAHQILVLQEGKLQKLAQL
TAP, sequence (O15533 21-448 partner): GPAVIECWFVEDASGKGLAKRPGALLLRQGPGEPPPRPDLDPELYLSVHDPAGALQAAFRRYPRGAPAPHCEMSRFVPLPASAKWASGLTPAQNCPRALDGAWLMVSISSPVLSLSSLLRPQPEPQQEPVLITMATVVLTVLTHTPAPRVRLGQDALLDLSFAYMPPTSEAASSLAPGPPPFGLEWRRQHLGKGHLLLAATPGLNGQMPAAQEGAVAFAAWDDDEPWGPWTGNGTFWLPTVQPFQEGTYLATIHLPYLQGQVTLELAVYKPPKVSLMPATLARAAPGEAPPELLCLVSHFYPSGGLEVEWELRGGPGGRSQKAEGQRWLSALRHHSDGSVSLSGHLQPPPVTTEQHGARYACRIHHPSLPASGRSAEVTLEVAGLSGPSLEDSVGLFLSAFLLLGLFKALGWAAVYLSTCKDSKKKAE
TAP, sequence (P30101 25-505 partner): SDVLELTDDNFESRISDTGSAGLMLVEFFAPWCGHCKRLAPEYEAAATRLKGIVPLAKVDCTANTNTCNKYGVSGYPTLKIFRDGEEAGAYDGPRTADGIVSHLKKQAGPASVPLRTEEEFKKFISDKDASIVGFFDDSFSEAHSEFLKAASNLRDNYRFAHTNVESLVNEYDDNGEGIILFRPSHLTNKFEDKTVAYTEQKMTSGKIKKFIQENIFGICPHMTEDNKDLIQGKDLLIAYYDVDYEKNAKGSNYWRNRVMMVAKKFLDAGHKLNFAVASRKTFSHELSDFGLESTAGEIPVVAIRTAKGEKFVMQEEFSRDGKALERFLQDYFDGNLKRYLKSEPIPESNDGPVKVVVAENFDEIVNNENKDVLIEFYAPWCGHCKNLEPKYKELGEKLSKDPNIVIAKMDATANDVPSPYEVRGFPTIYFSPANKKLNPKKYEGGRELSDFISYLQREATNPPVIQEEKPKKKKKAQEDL

In the case of `CC[C@H](C)[C@H](NC(=O)[C@H](CCC(=O)O)NC(=O)[C@H](CC(=O)O)NC(=O)[C@H](CCCNC(=N)N)NC(=O)[C@@H](NC(=O)[C@H](CC(=O)O)NC(=O)[C@H](C)NC(=O)[C@H](Cc1ccc(O)cc1)NC(=O)[C@@H](NC(=O)[C@H](CCCNC(=N)N)NC(=O)[C@@H]1CCCN1C(=O)CNC(=O)[C@@H](NC(=O)[C@H](CCCNC(=N)N)NC(=O)[C@H](CCSC)NC(=O)[C@H](CC(N)=O)NC(=O)[C@H](CC(=O)O)NC(=O)[C@H](CC(C)C)NC(=O)[C@H](Cc1ccccc1)NC(=O)[C@@H](NC(=O)[C@H](CC(=O)O)NC(=O)[C@H](C)NC(=O)[C@H](CCSC)NC(=O)[C@H](CCC(=O)O)NC(=O)[C@H](CC(C)C)NC(=O)[C@H](C)NC(=O)[C@H](Cc1c[nH]c2ccccc12)NC(=O)[C@@H](N)CO)[C@@H](C)O)C(C)C)[C@@H](C)O)C(C)C)C(=O)N[C@@H](CC(N)=O)C(=O)N[C@@H](CCCCN)C(=O)N[C@@H](CCCNC(=N)N)C(=O)NCC(=O)N[C@@H](CCCNC(=N)N)C(=O)O` [ICP47_2–34], the inhibition (commonly the share of the control response that was lost under treatment) at 5 µM at TAP was over 85%. Besides, in experiment [1], the “effect of illumination on TAP peptide binding blocked by inhibitor” value was “not affected by illumination; also recorded: did not recover the TAP activity”.
